The series can be described thus: pH of 2.5 wt % aqueous solutions of the salts in purified water. The note with it: 2.5 wt % aqueous solution in purified water. In kind it is physicochemical.

For the molecule `[Ca+2].[Cl-].[Cl-]` [CaCl2(anhydrous), anhydrous calcium chloride], the “pH of 2.5% salt solution” value worked out at 8.40. `NCC(=O)O` [Glycine, glycine]: the “pH of 2.5% salt solution” value was determined as 6.12. `[Cl-].[K+]` [KCl, potassium chloride]: the “pH of 2.5% salt solution” value came out at 6.05. Consider `Cl.N` [NH4Cl, ammonium chloride], for which the “pH of 2.5% salt solution” value turned out to be 4.97. For the molecule `O=C([O-])[O-].[Na+].[Na+]` [Na2CO3(anhydrous), anhydrous sodium carbonate], the “pH of 2.5% salt solution” value is 11.31.

Turning to `O=P([O-])([O-])O.[Na+].[Na+]` [Na2HPO4(anhydrous), anhydrous disodium hydrogen phosphate], the “pH of 2.5% salt solution” value came to 8.90. Turning to `[Cl-].[Na+]` [NaCl, sodium chloride], the “pH of 2.5% salt solution” value stood at 5.69. In the case of `O=C([O-])O.[Na+]` [NaHCO3(anhydrous), anhydrous sodium bicarbonate] it was 8.09; in that of “anhydrous sodium acetate [CH3CO2Na(anhydrous)]”, 8.25.

The values are drawn from patent US20080214557A1, “METHOD FOR PREPARATION OF PHARMACEUTICAL COMPOSITION HAVING IMPROVED DISINTEGRATABILITY AND PHARMACEUTICAL COMPOSITION MANUFACTURED BY SAME METHOD” (Eisai R&D Management Co., Ltd., priority 2005, published 2008).
